One test addresses human TLR7 (Homo sapiens (Human), UniProt Q9NYK1). As to the kind of experiment: TLR7 inhibition reporter assay (HEK-Blue cells, SEAP reporter, gardiquimod stimulation). Format: cell-based. Particulars: HEK-Blue cells overexpressing human TLR7, gardiquimod 7.5 μM.
The target in another test is human TLR9 (Homo sapiens (Human), UniProt Q9NR96). Put plainly: TLR9 inhibition reporter assay (HEK-Blue cells, SEAP reporter, ODN2006 stimulation). (In general: Reporter assays use an easily measured gene product as a stand-in for the process of interest.);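 also: compounds tested over 0.05 nM to 50 µM, 22 h incubation, inhibition taken as SEAP signal drop from agonist plus DMSO wells toward a known inhibitor control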
In a further test the target is human TLR8 (Homo sapiens (Human), UniProt Q9NR97). As to the kind of experiment: TLR8 inhibition reporter assay (HEK-Blue cells, SEAP reporter, R848 stimulation).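 Also: compounds tested from 0.05 nM to 50 µM, 22 h at 37 °C, SEAP measured with HEK-Blue Detection, inhibition relative to agonist plus DMSO versus a known inhibitor.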
The mark [1] stands for this setting: read-out: TLR9 IC50, HEK-Blue cells overexpressing human TLR9, ODN2006 5 nM.
Where [2] appears, read: read-out: TLR8 IC50, HEK-Blue cells overexpressing human TLR8, R848 15.9 μM.
The mark [3] stands for this setting: TLR9 IC50, HEK-Blue cells overexpressing human TLR9, ODN2006 5 nM.
Setting [4] is: TLR8 IC50, HEK-Blue cells overexpressing human TLR8, R848 15.9 μM.

SMILES strings stand for the structures. Where two headings read alike, the source gives them in different places.

Chain of human TLR7 (Q9NYK1 27-1049): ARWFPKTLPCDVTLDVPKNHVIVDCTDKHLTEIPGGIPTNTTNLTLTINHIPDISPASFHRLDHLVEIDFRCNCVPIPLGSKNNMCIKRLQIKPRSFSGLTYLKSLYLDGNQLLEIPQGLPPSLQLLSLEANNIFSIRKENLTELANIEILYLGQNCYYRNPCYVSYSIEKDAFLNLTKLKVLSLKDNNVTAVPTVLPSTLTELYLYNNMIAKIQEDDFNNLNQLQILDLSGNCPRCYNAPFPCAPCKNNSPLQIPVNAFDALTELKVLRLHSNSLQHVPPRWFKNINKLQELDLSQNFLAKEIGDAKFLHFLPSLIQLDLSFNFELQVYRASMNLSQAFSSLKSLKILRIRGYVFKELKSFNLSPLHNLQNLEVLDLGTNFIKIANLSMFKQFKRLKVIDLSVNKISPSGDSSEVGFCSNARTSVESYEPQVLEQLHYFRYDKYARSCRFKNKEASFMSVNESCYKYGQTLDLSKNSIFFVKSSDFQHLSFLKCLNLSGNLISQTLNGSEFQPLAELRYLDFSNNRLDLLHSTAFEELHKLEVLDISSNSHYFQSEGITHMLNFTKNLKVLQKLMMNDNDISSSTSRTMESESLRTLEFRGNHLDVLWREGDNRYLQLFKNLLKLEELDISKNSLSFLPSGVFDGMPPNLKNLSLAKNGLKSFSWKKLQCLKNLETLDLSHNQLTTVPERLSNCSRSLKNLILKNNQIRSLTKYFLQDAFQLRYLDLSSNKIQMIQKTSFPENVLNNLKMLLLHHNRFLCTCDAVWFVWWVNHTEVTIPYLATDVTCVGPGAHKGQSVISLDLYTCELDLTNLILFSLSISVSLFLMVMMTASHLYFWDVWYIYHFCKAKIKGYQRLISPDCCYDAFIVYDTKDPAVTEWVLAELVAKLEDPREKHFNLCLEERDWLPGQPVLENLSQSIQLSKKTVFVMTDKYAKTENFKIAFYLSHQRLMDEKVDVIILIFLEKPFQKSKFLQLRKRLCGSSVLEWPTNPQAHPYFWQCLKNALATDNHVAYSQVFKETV
Chain of human TLR8 (Q9NR97 27-1041): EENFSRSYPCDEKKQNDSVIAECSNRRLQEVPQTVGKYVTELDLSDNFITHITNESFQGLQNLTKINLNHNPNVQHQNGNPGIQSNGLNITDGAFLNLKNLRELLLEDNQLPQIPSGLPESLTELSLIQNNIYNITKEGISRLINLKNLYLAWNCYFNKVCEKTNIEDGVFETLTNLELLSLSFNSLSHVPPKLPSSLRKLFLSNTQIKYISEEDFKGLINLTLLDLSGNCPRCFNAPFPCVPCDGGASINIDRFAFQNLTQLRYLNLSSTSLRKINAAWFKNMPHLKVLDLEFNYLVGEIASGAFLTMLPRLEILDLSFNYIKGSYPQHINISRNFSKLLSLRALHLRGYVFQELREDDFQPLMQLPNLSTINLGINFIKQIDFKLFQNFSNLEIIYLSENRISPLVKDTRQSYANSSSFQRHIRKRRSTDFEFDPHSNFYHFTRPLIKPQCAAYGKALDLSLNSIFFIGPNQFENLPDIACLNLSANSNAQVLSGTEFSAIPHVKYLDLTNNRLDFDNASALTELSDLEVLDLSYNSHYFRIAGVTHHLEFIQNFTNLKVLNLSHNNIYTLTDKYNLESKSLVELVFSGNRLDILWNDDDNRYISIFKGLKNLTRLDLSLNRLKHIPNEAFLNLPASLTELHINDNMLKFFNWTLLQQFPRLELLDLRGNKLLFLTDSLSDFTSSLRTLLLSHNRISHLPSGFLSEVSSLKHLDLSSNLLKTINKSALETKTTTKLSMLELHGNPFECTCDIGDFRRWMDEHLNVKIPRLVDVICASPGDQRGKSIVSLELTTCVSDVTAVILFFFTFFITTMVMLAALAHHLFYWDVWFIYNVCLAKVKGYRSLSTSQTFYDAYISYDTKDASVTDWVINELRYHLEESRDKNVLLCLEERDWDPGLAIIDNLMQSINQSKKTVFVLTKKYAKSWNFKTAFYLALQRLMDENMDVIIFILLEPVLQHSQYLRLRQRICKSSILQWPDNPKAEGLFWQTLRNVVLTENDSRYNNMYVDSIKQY
Chain of human TLR9 (Q9NR96 26-1032): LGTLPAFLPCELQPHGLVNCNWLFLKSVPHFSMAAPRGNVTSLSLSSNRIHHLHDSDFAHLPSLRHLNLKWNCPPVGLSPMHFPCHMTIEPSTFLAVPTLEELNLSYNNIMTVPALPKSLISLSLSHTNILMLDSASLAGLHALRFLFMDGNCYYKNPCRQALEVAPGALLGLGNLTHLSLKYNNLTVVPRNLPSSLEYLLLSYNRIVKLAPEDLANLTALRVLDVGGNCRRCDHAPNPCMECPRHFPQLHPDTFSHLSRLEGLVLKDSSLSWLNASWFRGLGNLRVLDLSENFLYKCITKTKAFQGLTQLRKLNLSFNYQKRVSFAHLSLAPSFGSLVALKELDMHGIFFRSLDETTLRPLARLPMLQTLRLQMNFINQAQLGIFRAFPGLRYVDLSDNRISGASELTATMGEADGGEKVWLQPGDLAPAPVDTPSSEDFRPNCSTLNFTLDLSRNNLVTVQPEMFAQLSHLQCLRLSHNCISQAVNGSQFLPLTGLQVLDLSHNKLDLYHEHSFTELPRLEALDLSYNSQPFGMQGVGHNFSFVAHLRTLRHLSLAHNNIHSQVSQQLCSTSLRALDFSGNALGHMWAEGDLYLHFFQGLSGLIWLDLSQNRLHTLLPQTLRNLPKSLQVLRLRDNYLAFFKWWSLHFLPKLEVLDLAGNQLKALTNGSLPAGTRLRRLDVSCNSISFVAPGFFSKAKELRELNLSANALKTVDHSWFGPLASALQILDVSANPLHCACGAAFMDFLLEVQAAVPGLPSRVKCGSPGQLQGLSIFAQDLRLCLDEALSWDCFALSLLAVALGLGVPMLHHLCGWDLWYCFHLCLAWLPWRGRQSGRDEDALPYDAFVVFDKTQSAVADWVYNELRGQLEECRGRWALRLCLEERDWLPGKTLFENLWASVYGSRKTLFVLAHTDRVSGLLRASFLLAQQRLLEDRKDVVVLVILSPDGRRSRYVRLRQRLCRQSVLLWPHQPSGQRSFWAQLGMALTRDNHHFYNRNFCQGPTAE

Consider `Cc1cc(-c2[nH]c3ccc(C4CCN(C(=O)CN(C)CCCO)CC4)cc3c2C(C)C)cc(C)n1` [Example 411, 1-(4-(2-(2,6-dimethylpyridin-4-yl)-3-isopropyl-1H-indol-5-yl)piperidin-1-yl)-2-((3-hydroxypropyl)(methyl)amino)ethan-1-one], for which the figures for the IC50 against human TLR7, on human TLR9 (setting [1]) and at human TLR8 (setting [2]) were 0.0029 µM, 1.23 µM and 0.024 µM, respectively.
On to `Cc1cc(-c2[nH]c3ccc(C4CCN(CC(=O)NCC(F)(F)F)CC4)cc3c2C(C)C)cc(C)n1` [Example 214, 2-(4-(2-(2,6-dimethylpyridin-4-yl)-3-isopropyl-1H-indol-5-yl)piperidin-1-yl)-N-(2,2,2-trifluoroethyl)acetamide], for which the results for the IC50 on human TLR7, on human TLR9 (setting [1]) and on human TLR8 (setting [2]) were 0.0062 µM, 1.22 µM and 0.0128 µM, respectively.
Take `Cc1cc(-c2[nH]c3ccc(C4CCN(Cc5cccnc5)CC4)cc3c2C(C)C)cc(C)n1` [Example 433, 2-(2,6-dimethylpyridin-4-yl)-3-isopropyl-5-(1-(pyridin-3-ylmethyl)piperidin-4-yl)-1H-indole]: the IC50 came to 0.0046 µM at human TLR7, 0.234 µM against human TLR9 (setting [3]) and 0.0024 µM against human TLR8 (setting [4]).
Regarding `Cc1cc(-c2[nH]c3ccc(C4CCN(C5CCNCC5C)CC4)cc3c2C(C)C)ccn1` (stereo not drawn) [Example 709, 3-isopropyl-5-(3′-methyl-[1,4′-bipiperidin]-4-yl)-2-(2-methylpyridin-4-yl)-1H-indole], the concentration for half-maximal inhibition (IC50) is 0.0324 µM against human TLR7, 0.393 µM on human TLR9 (setting [1]) and 0.0126 µM at human TLR8 (setting [2]).
On the same counts, the results for `Cc1cc(-c2[nH]c3ccc(C4CCN(C(=O)CN5CC(F)(F)C[C@H]5CO)CC4)cc3c2C(C)C)cc(C)n1` [Example 403, (S)-2-(4,4-difluoro-2-(hydroxymethyl)pyrrolidin-1-yl)-1-(4-(2-(2,6-dimethylpyridin-4-yl)-3-isopropyl-1H-indol-5-yl)piperidin-1-yl)ethan-1-one] are 0.0146 µM, 17.6 µM and 0.209 µM.
As for `Cc1cc(-c2[nH]c3ccc(C4CCN(CC(O)C(F)(F)F)CC4)cc3c2C(C)C)cc(C)n1` (stereo not drawn) [Example 316, 3-(4-(2-(2,6-dimethylpyridin-4-yl)-3-isopropyl-1H-indol-5-yl)piperidin-1-yl)-1,1,1-trifluoropropan-2-ol], the IC50 was found to be 0.0119 µM on human TLR7, 0.78 µM on human TLR9 (setting [1]) and 0.0023 µM on human TLR8 (setting [2]).
The like results for `Cc1cc(-c2[nH]c3ccc(C4CCN(C(=O)CN(C)CCC#N)CC4)cc3c2C(C)C)c(F)cn1` [Example 679, 3-((2-(4-(2-(5-fluoro-2-methylpyridin-4-yl)-3-isopropyl-1H-indol-5-yl)piperidin-1-yl)-2-oxoethyl)(methyl)amino)propanenitrile] were, in that order, 0.0127 µM, 4.38 µM and 0.0198 µM.
For `Cc1cc(-c2[nH]c3ccc(C4CCN(CC(C)(C)O)CC4)cc3c2C2CC2)cc(C)n1` [Example 668, 1-(4-(3-cyclopropyl-2-(2,6-dimethylpyridin-4-yl)-1H-indol-5-yl)piperidin-1-yl)-2-methylpropan-2-ol], the IC50 against human TLR7 stood at 0.0143 µM; on human TLR9 (setting [1]), 0.149 µM; on human TLR8 (setting [2]) it was 0.0076 µM.
As to `Cc1cc(-c2[nH]c3ccc(C4CCN(Cc5ccn[nH]5)CC4)cc3c2C(C)C)c(C)cn1` [Example 681, 5-(1-((1H-pyrazol-5-yl)methyl)piperidin-4-yl)-2-(2,5-dimethylpyridin-4-yl)-3-isopropyl-1H-indole], the IC50 at human TLR7 came out at 0.0155 µM; at human TLR9 (setting [1]) it was 1.53 µM; at human TLR8 (setting [2]), 0.0006 µM.
The like results for `Cc1cc(-c2[nH]c3ccc(C4CCN(C5CCS(=O)(=O)CC5)CC4)cc3c2C(C)C)cc(C)n1` [Example 459, 4-(4-(2-(2,6-dimethylpyridin-4-yl)-3-isopropyl-1H-indol-5-yl)piperidin-1-yl)tetrahydro-2H-thiopyran 1,1-dioxide] were, in that order, 0.0037 µM, 1.22 µM and 0.0036 µM.
On to `Cc1cc(-c2[nH]c3ccc(C4CCN(C(=O)CN5CCCC(O)C5)CC4)cc3c2C(C)C)cc(C)n1` (stereo not drawn) [Example 383, 1-(4-(2-(2,6-dimethylpyridin-4-yl)-3-isopropyl-1H-indol-5-yl)piperidin-1-yl)-2-(3-hydroxypiperidin-1-yl)ethan-1-one], for which the IC50 on human TLR7 was found to be 0.0017 µM; at human TLR9 (setting [1]), 0.572 µM; at human TLR8 (setting [2]), 0.0111 µM.
The like results for `CCc1c(-c2ccncc2)[nH]c2ccc(C3CCN(C4CCN(CC(C)C)CC4)CC3)cc12` [Example 779, 3-ethyl-5-(1′-isobutyl-[1,4′-bipiperidin]-4-yl)-2-(pyridin-4-yl)-1H-indole] were, in that order, 2.11 µM, 0.159 µM and 0.0866 µM.
For `CCc1c(-c2ccnc(N)c2)[nH]c2ccc(C3CCN(C4CCN(CC(C)C)CC4)CC3)cc12` [Example 773, 4-(3-ethyl-5-(1′-isobutyl-[1,4′-bipiperidin]-4-yl)-1H-indol-2-yl)pyridin-2-amine], the IC50 against human TLR7 amounted to 0.613 µM; at human TLR9 (setting [1]) it was 0.045 µM; on human TLR8 (setting [2]) it was 0.114 µM.
In the case of `Cc1cc(-c2[nH]c3ccc(C4CCN(C(=O)CNC5CCOCC5)CC4)cc3c2C(C)C)cc(C)n1` [Example 386, 1-(4-(2-(2,6-dimethylpyridin-4-yl)-3-isopropyl-1H-indol-5-yl)piperidin-1-yl)-2-((tetrahydro-2H-pyran-4-yl)amino)ethan-1-one], the values for the IC50 against human TLR7, at human TLR9 (setting [1]) and at human TLR8 (setting [2]) were 0.0036 µM, 0.28 µM and 0.0177 µM, respectively.
On the same counts, the results for `COc1cc(-c2[nH]c3ccc(C4CCNCC4)cc3c2C(C)C)cc(C2CC2)n1` [Example 486, 2-(2-cyclopropyl-6-methoxypyridin-4-yl)-3-isopropyl-5-(piperidin-4-yl)-1H-indole] are 0.049 µM, 2.76 µM and 0.213 µM.
The like results for `COC(=O)N1CCC(c2ccc3[nH]c(-c4ccnc(C)c4)c(C(C)C)c3c2)CC1` [Example 562, methyl 4-(3-isopropyl-2-(2-methylpyridin-4-yl)-1H-indol-5-yl) piperidine-1-carboxylate] were, in that order, 0.287 µM, over 50 µM and 1.4 µM.
On the same counts, the results for `Cc1cc(-c2[nH]c3ccc(C4CCN(C(=O)CN(C)C5COC5)CC4)cc3c2C(C)C)cc(C)n1` [Example 416, 1-(4-(2-(2,6-dimethylpyridin-4-yl)-3-isopropyl-1H-indol-5-yl)piperidin-1-yl)-2-(methyl(oxetan-3-yl)amino)ethan-1-one] are 0.0045 µM, 4.76 µM and 0.0497 µM.
Consider `Cc1cc(-c2[nH]c3ccc(C4CCN(S(=O)(=O)c5ccc(F)cc5)CC4)cc3c2C(C)C)ccn1` [Example 551, 5-(1-((4-fluorophenyl)sulfonyl)piperidin-4-yl)-3-isopropyl-2-(2-methylpyridin-4-yl)-1H-indole], for which the IC50 was 0.486 µM on human TLR7, over 50 µM on human TLR9 (setting [1]) and 1.03 µM on human TLR8 (setting [2]).
As to `Cc1cc(-c2[nH]c3ccc(C4CCN(CC(=O)N5CCCC(F)C5)CC4)cc3c2C(C)C)cc(C)n1` (stereo not drawn) [Example 258, 2-(4-(2-(2,6-dimethylpyridin-4-yl)-3-isopropyl-1H-indol-5-yl)piperidin-1-yl)-1-(3-fluoropiperidin-1-yl)ethan-1-one], the IC50 is 0.0076 µM on human TLR7, 0.903 µM at human TLR9 (setting [1]) and 0.0156 µM on human TLR8 (setting [2]).
As for `CO[C@@H]1C[C@H](CO)N(C(=O)CN2CCC(c3ccc4[nH]c(-c5cc(C)nc(C)c5)c(C(C)C)c4c3)CC2)C1` [Example 292, 2-(4-(2-(2,6-dimethylpyridin-4-yl)-3-isopropyl-1H-indol-5-yl)piperidin-1-yl)-1-((2R,4R)-2-(hydroxymethyl)-4-methoxypyrrolidin-1-yl)ethan-1-one], the IC50 against human TLR7 came to 0.0031 µM; on human TLR9 (setting [1]) it was 0.365 µM; on human TLR8 (setting [2]), 0.0123 µM.
On the same counts, the results for `Cc1cc(-c2[nH]c3ccc(C4CCN(C(=O)C5CCOCC5)CC4)cc3c2C(C)C)ccn1` [Example 597, (4-(3-isopropyl-2-(2-methylpyridin-4-yl)-1H-indol-5-yl)piperidin-1-yl)(tetrahydro-2H-pyran-4-yl)methanone] are 0.0456 µM, 26.9 µM and 0.117 µM.
The like results for `Cc1cc(-c2[nH]c3ccc(C4CCN(CC(=O)N(C)CCC5(O)CCCC5)CC4)cc3c2C(C)C)cc(C)n1` [Example 303, 2-(4-(2-(2,6-dimethylpyridin-4-yl)-3-isopropyl-1H-indol-5-yl)piperidin-1-yl)-N-(2-(1-hydroxycyclopentyl)ethyl)-N-methylacetamide] were, in that order, 0.0078 µM, 0.402 µM and 0.0354 µM.
As to `Cc1cc(-c2[nH]c3ccc(C4CCN(CC(=O)NCC(C)(C)C)CC4)cc3c2C(C)C)cc(C)n1` [Example 219, 2-(4-(2-(2,6-dimethylpyridin-4-yl)-3-isopropyl-1H-indol-5-yl)piperidin-1-yl)-N-neopentylacetamide], the values for the IC50 on human TLR7, at human TLR9 (setting [3]) and on human TLR8 (setting [4]) were 0.0225 µM, 2.25 µM and 0.0477 µM, respectively.
With `Cc1cc(-c2[nH]c3ccc(C4CCN(C(=O)CN5CCOC[C@H]5CO)CC4)cc3c2C(C)C)cc(C)n1` [Example 400, (R)-1-(4-(2-(2,6-dimethylpyridin-4-yl)-3-isopropyl-1H-indol-5-yl)piperidin-1-yl)-2-(3-(hydroxymethyl)morpholino)ethan-1-one], the results for the IC50 against human TLR7, at human TLR9 (setting [1]) and at human TLR8 (setting [2]) were 0.0034 µM, 0.451 µM and 0.0168 µM, respectively.

In general, IC50 refers to the concentration needed to halve the response being measured.
